Experimental findings from patent US20200055839A1 (priority 2017, published 2020) are described below.

Molecules are shown by their SMILES.

The subject of this test is NL-RLuc virus. The test is described as follows: Inhibition of HIV replication (NL-RLuc virus, luciferase readout in MT-2 cells). In kind it is cell-based. Particulars: Human immunodeficiency virus 1, MT2, 120 h, MT-2 cells infected with NL-RLuc virus, 5 days of incubation, 10% FBS, at least 2 experiments. The method, boiled down: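 EC50 derived via median effect equation from at least 2 experiments, using luciferase expression as virus-growth readout. Replication-competent NL-RLuc reporter virus (nef partly replaced by Renilla luciferase) infected MT-2 cells with serial compound dilutions; 5-day incubation in RPMI 1640 plus 10% FBS.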
Usually EC50 stands for the concentration giving half of the maximal effect. The low end stands for higher potency in that assay, the high end for lower potency in that assay. For `Cc1ncc(-c2ccc(OC(C)C)cn2)c(N2CCC(C)(C)CC2)c1[C@H](OC(C)(C)C)C(=O)O` [Example 314, (2S)-2-(tert-butoxy)-2-[4′-(4,4-dimethylpiperidin-1-yl)-6′-methyl-5-(propan-2-yloxy)-[2,3′-bipyridine]-5′-yl]acetic acid], a half-maximal effect (EC50) was put at 5 nM.
On to `Cc1ncc(-c2ccc(OCCC(C)C)cn2)c(N2CCC(C)(C)CC2)c1[C@H](OC(C)(C)C)C(=O)O` [Example 315, (2S)-2-(tert-butoxy)-2-[4′-(4,4-dimethylpiperidin-1-yl)-6′-methyl-5-(3-methylbutoxy)-[2,3′-bipyridine]-5′-yl]acetic acid], for which the concentration for a half-maximal effect (EC50) was 2 nM. This EC50 is about 2.5-fold lower than that of the compound before.
For `Cc1ncc(-c2ccc(OCCC(C)(C)C)cn2)c(N2CCC(C)(C)CC2)c1[C@H](OC(C)(C)C)C(=O)O` [Example 316, (2S)-2-(tert-butoxy)-2-[5-(3,3-dimethylbutoxy)-4′-(4,4-dimethylpiperidin-1-yl)-6′-methyl-[2,3′-bipyridine]-5′-yl]acetic acid], the response was half-maximal at 2 nM (EC50).
`CCCCCOc1ccc(-c2cnc(C)c([C@H](OC(C)(C)C)C(=O)O)c2N2CCC(C)(C)CC2)nc1` [Example 317, (2S)-2-(tert-butoxy)-2-[4′-(4,4-dimethylpiperidin-1-yl)-6′-methyl-5-(pentyloxy)-[2,3′-bipyridine]-5′-yl]acetic acid] yielded an EC50 of 1 nM.
In turn, `CCCOc1ccc(-c2cnc(C)c([C@H](OC(C)(C)C)C(=O)O)c2N2CCC(C)(C)CC2)nc1` [Example 318, (2S)-2-(tert-butoxy)-2-[4′-(4,4-dimethylpiperidin-1-yl)-6′-methyl-5-propoxy-[2,3′-bipyridine]-5′-yl]acetic acid] came in with a concentration for a half-maximal effect (EC50) of 3 nM.
Then `Cc1ncc(-c2ccc(O[C@H](C)C(C)C)cn2)c(N2CCC(C)(C)CC2)c1[C@H](OC(C)(C)C)C(=O)O` [Example 319, (2S)-2-(tert-butoxy)-2-[4′-(4,4-dimethylpiperidin-1-yl)-6′-methyl-5-{[(2R)-3-methylbutan-2-yl]oxy}-[2,3′-bipyridine]-5′-yl]acetic acid], with 7 nM; and `CCOc1ccc(CCOc2ccc(-c3cnc(C)c([C@H](OC(C)(C)C)C(=O)O)c3N3CCC(C)(C)CC3)nc2)cc1` [Example 320, (2S)-2-(tert-butoxy)-2-[4′-(4,4-dimethylpiperidin-1-yl)-5-[2-(4-ethoxyphenyl)ethoxy]-6′-methyl-[2,3′-bipyridine]-5′-yl]acetic acid], with 2 nM.
In the case of `Cc1ncc(-c2ccc(OCCCc3ccccc3)cn2)c(N2CCC(C)(C)CC2)c1[C@H](OC(C)(C)C)C(=O)O` [Example 321, (2S)-2-(tert-butoxy)-2-[4′-(4,4-dimethylpiperidin-1-yl)-6′-methyl-5-(3-phenylpropoxy)-[2,3′-bipyridine]-5′-yl]acetic acid], the EC50 is 0.5 nM.
Then `CCc1ccc(CCOc2ccc(-c3cnc(C)c([C@H](OC(C)(C)C)C(=O)O)c3N3CCC(C)(C)CC3)nc2)cc1` [Example 322, (2S)-2-(tert-butoxy)-2-[4′-(4,4-dimethylpiperidin-1-yl)-5-[2-(4-ethylphenyl)ethoxy]-6′-methyl-[2,3′-bipyridine]-5′-yl]acetic acid], with 0.7 nM; and `Cc1ncc(-c2ccc(OCCc3cc(F)cc(F)c3)cn2)c(N2CCC(C)(C)CC2)c1[C@H](OC(C)(C)C)C(=O)O` [Example 323, (2S)-2-(tert-butoxy)-2-{5-[2-(3,5-difluorophenyl)ethoxy]-4′-(4,4-dimethylpiperidin-1-yl)-6′-methyl-[2,3′-bipyridine]-5′-yl}acetic acid], with 1 nM; and `CCCOc1ccc(CCOc2ccc(-c3cnc(C)c([C@H](OC(C)(C)C)C(=O)O)c3N3CCC(C)(C)CC3)nc2)cc1` [Example 325, (2S)-2-(tert-butoxy)-2-[4′-(4,4-dimethylpiperidin-1-yl)-6′-methyl-5-[2-(4-propoxyphenyl)ethoxy]-[2,3′-bipyridine]-5′-yl]acetic acid], with 3 nM.
`CCCCCCCOc1ccc(-c2cnc(C)c([C@H](OC(C)(C)C)C(=O)O)c2N2CCC(C)(C)CC2)nc1` [Example 326, (2S)-2-(tert-butoxy)-2-[4′-(4,4-dimethylpiperidin-1-yl)-5-(heptyloxy)-6′-methyl-[2,3′-bipyridine]-5′-yl]acetic acid] registered an EC50 of 3 nM.
The value for `Cc1ncc(-c2ccc(OCCc3c(F)cccc3F)cn2)c(N2CCC(C)(C)CC2)c1[C@H](OC(C)(C)C)C(=O)O` [Example 327, (2S)-2-(tert-butoxy)-2-{5-[2-(2,6-difluorophenyl)ethoxy]-4′-(4,4-dimethylpiperidin-1-yl)-6′-methyl-[2,3′-bipyridine]-5′-yl}acetic acid] was 5 nM; that for `Cc1ncc(-c2ccc(OCCc3cccc(F)c3F)cn2)c(N2CCC(C)(C)CC2)c1[C@H](OC(C)(C)C)C(=O)O` [Example 329, (2S)-2-(tert-butoxy)-2-{5-[2-(2,3-difluorophenyl)ethoxy]-4′-(4,4-dimethylpiperidin-1-yl)-6′-methyl-[2,3′-bipyridine]-5′-yl}acetic acid] was 0.5 nM; that for `COc1ccc(CCOc2ccc(-c3cnc(C)c([C@H](OC(C)(C)C)C(=O)O)c3N3CCC(C)(C)CC3)nc2)cc1F` [Example 330, (2S)-2-(tert-butoxy)-2-[4′-(4,4-dimethylpiperidin-1-yl)-5-[2-(3-fluoro-4-methoxyphenyl)ethoxy]-6′-methyl-[2,3′-bipyridine]-5′-yl]acetic acid] was 0.4 nM.
`Cc1ccc(CCOc2ccc(-c3cnc(C)c([C@H](OC(C)(C)C)C(=O)O)c3N3CCC(C)(C)CC3)nc2)cc1Cl` [Example 331, (2S)-2-(tert-butoxy)-2-{5-[2-(3-chloro-4-methylphenyl)ethoxy]-4′-(4,4-dimethylpiperidin-1-yl)-6′-methyl-[2,3′-bipyridine]-5′-yl}acetic acid] displayed a 50% effective concentration (EC50) of 0.5 nM.
The value for `Cc1ccc(CCOc2ccc(-c3cnc(C)c([C@H](OC(C)(C)C)C(=O)O)c3N3CCC(C)(C)CC3)nc2)cc1F` [Example 332, (2S)-2-(tert-butoxy)-2-[4′-(4,4-dimethylpiperidin-1-yl)-5-[2-(3-fluoro-4-methylphenyl)ethoxy]-6′-methyl-[2,3′-bipyridine]-5′-yl]acetic acid] was 0.5 nM; that for `CCCCCCOc1ccc(-c2cnc(C)c([C@H](OC(C)(C)C)C(=O)O)c2N2CCC(C)(C)CC2)nc1` [Example 334, (2S)-2-(tert-butoxy)-2-[4′-(4,4-dimethylpiperidin-1-yl)-5-(hexyloxy)-6′-methyl-[2,3′-bipyridine]-5′-yl]acetic acid] was 4 nM.
Then `Cc1ncc(-c2ccc(OCc3ccccc3Cl)cn2)c(N2CCC(C)(C)CC2)c1[C@H](OC(C)(C)C)C(=O)O` [Example 336, (2S)-2-(tert-butoxy)-2-{5-[(2-chlorophenyl)methoxy]-4′-(4,4-dimethylpiperidin-1-yl)-6′-methyl-[2,3′-bipyridine]-5′-yl}acetic acid], with 2 nM.
Then `Cc1ncc(-c2ccc(OCc3cccc(Cl)c3)cn2)c(N2CCC(C)(C)CC2)c1[C@H](OC(C)(C)C)C(=O)O` [Example 337, (2S)-2-(tert-butoxy)-2-{5-[(3-chlorophenyl)methoxy]-4′-(4,4-dimethylpiperidin-1-yl)-6′-methyl-[2,3′-bipyridine]-5′-yl}acetic acid], with 2 nM; and `Cc1ncc(-c2ccc(OCc3ccc(Cl)cc3)cn2)c(N2CCC(C)(C)CC2)c1[C@H](OC(C)(C)C)C(=O)O` [Example 338, (2S)-2-(tert-butoxy)-2-{5-[(4-chlorophenyl)methoxy]-4′-(4,4-dimethylpiperidin-1-yl)-6′-methyl-[2,3′-bipyridine]-5′-yl}acetic acid], with 1 nM; and `COc1ccc(COc2ccc(-c3cnc(C)c([C@H](OC(C)(C)C)C(=O)O)c3N3CCC(C)(C)CC3)nc2)cc1` [Example 339, (2S)-2-(tert-butoxy)-2-[4′-(4,4-dimethylpiperidin-1-yl)-5-[(4-methoxyphenyl)methoxy]-6′-methyl-[2,3′-bipyridine]-5′-yl]acetic acid], with 2 nM.
For `COc1cccc(COc2ccc(-c3cnc(C)c([C@H](OC(C)(C)C)C(=O)O)c3N3CCC(C)(C)CC3)nc2)c1` [Example 340, (2S)-2-(tert-butoxy)-2-[4′-(4,4-dimethylpiperidin-1-yl)-5-[(3-methoxyphenyl)methoxy]-6′-methyl-[2,3′-bipyridine]-5′-yl]acetic acid], the response was half-maximal at 2 nM (EC50).
Then `Cc1ncc(-c2ccc(OCCCCc3ccccc3)cn2)c(N2CCC(C)(C)CC2)c1[C@H](OC(C)(C)C)C(=O)O` [Example 341, (2S)-2-(tert-butoxy)-2-[4′-(4,4-dimethylpiperidin-1-yl)-6′-methyl-5-(4-phenylbutoxy)-[2,3′-bipyridine]-5′-yl]acetic acid], with 3 nM; and `Cc1ccc(COc2ccc(-c3cnc(C)c([C@H](OC(C)(C)C)C(=O)O)c3N3CCC(C)(C)CC3)nc2)cc1` [Example 342, (2S)-2-(tert-butoxy)-2-[4′-(4,4-dimethylpiperidin-1-yl)-6′-methyl-5-[(4-methylphenyl)methoxy]-[2,3′-bipyridine]-5′-yl]acetic acid], with 2 nM.
Then `Cc1ncc(-c2ccc(OCc3cccc(F)c3)cn2)c(N2CCC(C)(C)CC2)c1[C@H](OC(C)(C)C)C(=O)O` [Example 343, (2S)-2-(tert-butoxy)-2-[4′-(4,4-dimethylpiperidin-1-yl)-5-[(3-fluorophenyl)methoxy]-6′-methyl-[2,3′-bipyridine]-5′-yl]acetic acid], with 2 nM.
`Cc1ncc(-c2ccc(OCc3ccc(F)cc3)cn2)c(N2CCC(C)(C)CC2)c1[C@H](OC(C)(C)C)C(=O)O` [Example 344, (2S)-2-(tert-butoxy)-2-[4′-(4,4-dimethylpiperidin-1-yl)-5-[(4-fluorophenyl)methoxy]-6′-methyl-[2,3′-bipyridine]-5′-yl]acetic acid] gave an EC50 of 2 nM.
